Here are results for 1 compound from publication PMC3130785, “Small Compound 6-O-Angeloylplenolin Induces Mitotic Arrest and Exhibits Therapeutic Potentials in Multiple Myeloma” (PLoS ONE, 2011).

The subject of data set [1] is U266 cells. As to the kind of experiment: U266 xenograft murine model. In kind it is in vivo, BALB/c nude mice. The protocol:
All mice used in this study were bred and maintained in a specific pathogen-free environment. BALB/c nude mice (6 to 7 weeks old) were obtained from the Shanghai Laboratory Animal Center (Shanghai, China), and maintained and monitored in a specific pathogen-free environment. All animal studies were conducted according to protocols approved by the Animal Ethics Committee of our institute. The mice were injected subcutaneously with 1×10^7 U266 cells in 100 µL RPMI-1640 media into the right flank. Treatments were started when the tumors reached a palpable size. The control group received vehicle (0.8% DMSO/18% Cremophor/8% Ethanol in normal saline), while the other two groups received intraperitoneally injection of 6-OAP (50 or 75 mg/kg per day, five times a week for 4 weeks). Caliper measurements of the longest perpendicular tumor diameters were performed twice a week to estimate the tumor volume, using the following formula: 4π/3× (width/2)^2× (length/2), representing the 3-dimensional volume of an ellipse. Animals were sacrificed when tumors reached 2 cm or if the mice appeared moribund to prevent unnecessary morbidity to the mice. At the time of the animals' death, tumors were excised; cells were separated and subjected to immunofluorescence analysis or lyzed for Western blotting.
Figure 6 In vivo therapeutic efficacy of 6-OAP on human MM murine model. Nude mice were given subcutaneous inoculations in the right flank with 1×10^7 U266 cells. When the tumors reached a palpable size, the mice were treated intraperitoneally with vehicle or 6-OAP (50 or 75 mg/kg, 5 times a week for 4 weeks). […] (C) Survival curve of control and 6-OAP-treated mice. […] (E) Tumor samples were harvested from mice treated with vehicle or 50 mg/kg 6-OAP and subjected to immunofluorescence analysis using an anti-α-tubulin antibody and DAPI. (F) Tumor tissues were harvested from mice treated with vehicle or 50 mg/kg 6-OAP, whole-tissue lysates were subjected to Western blotting using an anti-cyclin B1 antibody. (G) The concentration-time profiles of 6-OAP after intravenous (30 mg/kg) or intraperitoneal (40 mg/kg) injection of 6-OAP in Sprague-Dawley rats.

A further data set relates to Staphylococcus aureus. Details: method as in PMID 9461679, PMID 8657743, PMID 12521264. As to conditions: cited from earlier work.
The test system of data set [2] is U266 cells. As to the kind of experiment: Immunofluorescence analysis of microtubules (anti-α-tubulin). In kind it is cell-based, human. The settings on record: 5 to 7.5 µM for 24 h or 7.5 µM for 12 to 24 h. The protocol:
Both control and 6-OAP-treated MM cells were plated on glass slides by centrifugation using a cytospin, air-dried for 5 min at room temperature, and fixed with 4% paraformaldehyde for 15 min. After a brief washing in PBS with 100 mM glycine, slides were blocked with 5% bovine serum albumin (BSA; Sigma) and 0.3% Triton X-100 in PBS for 30 min at room temperature. Microtubules were detected with indicated antibodies diluted 1∶50 in 5% BSA in PBS overnight at 4°C and FITC or rhodamine-conjugated secondary antibodies (Santa Cruz) diluted 1∶200 in 5% BSA in PBS for 1.5 h at 37°C. Cells were then washed three times with PBS. Nuclei were stained with DAPI (Sigma).
Figure 2 6-OAP induces mitotic arrest in MM cells. (A) U266 cells were treated with 6-OAP at 7.5 µM for 0, 24, 48 h and imaged by Leica DMI 400B microscope. (B) U266 cells were treated with 6-OAP at indicated concentrations for 48 h. Cell cycle distribution was determined by flow cytometry. (C) MM.1S cells were treated with 5 µM 6-OAP for 48 h. Cell cycle distribution was determined by flow cytometry. (D) U266 cells were treated with 6-OAP at 5 to 7.5 µM for 24 h (left panel) or at 7.5 µM for 12 to 24 h (right panel). For immunofluorescence analysis of microtubules, cells was stained with an anti-α-tubulin antibody to visualize microtubules (green) and DAPI to counter stained DNA (blue) and observed by confocal microscopy. […]

For `CC=C(C)C(=O)OC1C2C(CC(C)C3C=CC(=O)C31C)OC(=O)C2C` (stereo not shown) [6-OAP, 6-O-angeloylplenolin], the “cyclin B1 in tumor tissues” value in the data set on U266 cells [1] (50 mg/kg, Western blotting, vs control mice) is “accumulated”. The “spindle formation in tumor samples” value with U266 cells [1] (50 mg/kg, immunofluorescence, anti-α-tubulin) is “apparent spindle formation was detected”. Also, the tumor growth result in the data set with U266 cells [1] (50 and 75 mg/kg ip, five times a week for four weeks, vs vehicle, P<.0001) was “significantly inhibited tumor growth”. In addition, in the data set with U266 cells [1] (50 or 75 mg/kg ip, 4 weeks), the “body weight of mice” value is listed as “did not reduce body weight”. Also, the survival result with U266 cells [1] (50 or 75 mg/kg ip, vs vehicle control) was “prolonged”. In the data set on Staphylococcus aureus, the antibacterial activity result is “exhibit antibacterial activity”. For the same compound, the “cellular microtubule network / mitotic spindle” value with U266 cells [2] is recorded as “cellular microtubules assembled to form mitotic spindle”.
